{
  "source": "patent US8969413B2",
  "key": {"Sprague-Dawley rats": {"system": "Sprague-Dawley rats", "experiment": "μPET imaging of 11C-raclopride binding after cocaine"}, "GABAB receptor [1]": {"target": "T1, GABAB receptor (Rattus norvegicus, UniProt Q9Z0U4)", "T1 sequence (Q9Z0U4 17-960 limits assumed)": "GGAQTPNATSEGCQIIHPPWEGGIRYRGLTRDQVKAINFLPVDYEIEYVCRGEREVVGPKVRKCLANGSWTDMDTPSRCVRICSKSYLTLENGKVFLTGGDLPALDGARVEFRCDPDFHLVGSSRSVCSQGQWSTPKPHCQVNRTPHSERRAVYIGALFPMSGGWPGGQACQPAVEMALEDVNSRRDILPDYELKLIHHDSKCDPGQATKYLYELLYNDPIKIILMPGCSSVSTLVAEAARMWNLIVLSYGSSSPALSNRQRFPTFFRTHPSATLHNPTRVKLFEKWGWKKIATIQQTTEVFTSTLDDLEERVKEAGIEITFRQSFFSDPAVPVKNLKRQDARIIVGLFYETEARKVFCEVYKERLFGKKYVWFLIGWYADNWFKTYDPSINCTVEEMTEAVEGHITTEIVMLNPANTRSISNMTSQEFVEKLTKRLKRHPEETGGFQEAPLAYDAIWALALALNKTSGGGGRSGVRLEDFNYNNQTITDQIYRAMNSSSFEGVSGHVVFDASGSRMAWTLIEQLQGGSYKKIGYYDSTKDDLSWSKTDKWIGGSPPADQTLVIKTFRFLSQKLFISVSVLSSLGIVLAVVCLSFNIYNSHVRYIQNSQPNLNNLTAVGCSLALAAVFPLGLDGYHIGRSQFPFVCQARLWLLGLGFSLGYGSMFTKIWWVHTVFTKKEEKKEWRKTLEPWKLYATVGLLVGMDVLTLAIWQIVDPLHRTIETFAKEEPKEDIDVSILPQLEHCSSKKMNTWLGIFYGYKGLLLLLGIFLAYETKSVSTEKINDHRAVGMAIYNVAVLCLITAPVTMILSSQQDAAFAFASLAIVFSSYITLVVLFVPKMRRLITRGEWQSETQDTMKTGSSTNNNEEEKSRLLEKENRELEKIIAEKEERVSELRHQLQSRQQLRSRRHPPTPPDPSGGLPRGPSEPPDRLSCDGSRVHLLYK", "T1 sequence (O88871 41-940 partner)": "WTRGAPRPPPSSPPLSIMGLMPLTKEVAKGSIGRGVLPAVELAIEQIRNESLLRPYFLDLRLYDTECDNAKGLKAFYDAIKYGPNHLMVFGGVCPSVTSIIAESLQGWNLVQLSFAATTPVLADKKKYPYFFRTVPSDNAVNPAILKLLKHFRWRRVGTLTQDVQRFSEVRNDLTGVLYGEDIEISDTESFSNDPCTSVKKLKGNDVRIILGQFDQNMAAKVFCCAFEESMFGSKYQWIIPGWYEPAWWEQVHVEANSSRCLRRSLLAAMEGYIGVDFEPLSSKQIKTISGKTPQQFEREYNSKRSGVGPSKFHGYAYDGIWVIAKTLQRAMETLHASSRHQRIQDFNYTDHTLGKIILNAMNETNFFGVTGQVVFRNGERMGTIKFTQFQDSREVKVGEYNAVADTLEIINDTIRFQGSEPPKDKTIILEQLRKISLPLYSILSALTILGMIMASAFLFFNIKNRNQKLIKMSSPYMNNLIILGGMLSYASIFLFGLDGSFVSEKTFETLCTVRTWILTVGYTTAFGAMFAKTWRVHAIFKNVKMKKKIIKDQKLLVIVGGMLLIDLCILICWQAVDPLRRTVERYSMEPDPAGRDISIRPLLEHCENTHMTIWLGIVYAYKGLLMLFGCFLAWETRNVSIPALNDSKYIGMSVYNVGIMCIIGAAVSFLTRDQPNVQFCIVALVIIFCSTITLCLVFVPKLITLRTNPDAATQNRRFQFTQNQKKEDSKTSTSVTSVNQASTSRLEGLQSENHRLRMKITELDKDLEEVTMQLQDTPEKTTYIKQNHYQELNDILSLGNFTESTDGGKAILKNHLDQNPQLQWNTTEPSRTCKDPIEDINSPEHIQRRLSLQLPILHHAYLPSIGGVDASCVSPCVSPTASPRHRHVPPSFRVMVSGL", "settings": "100 μM, rat brain cortical homogenate"}, "Wistar Albino rats": {"system": "Wistar Albino rats", "type": "in vivo", "settings": "20 mg/kg versus vigabatrin 200 mg/kg, 45 and 90 days", "procedure": "[…]. The formulations for each treatment group were prepared fresh weekly in 0.9% normal saline.\nAll animals were acclimated for 7 days to the test facility prior to the start of dosing and were housed in individual polycarbonate cages. The cage environment uses a standard 12 hr/12 hr light dark cycle, with standard industrial fluorescent lighting during the light cycle. During the course of the study, the animals were monitored for mortality, moribundity, clinical signs of illness, feed intake, and body weight change. Any animals found in distress for more than 24 hours were humanely euthanized. […]. […] At the conclusion of the dosing phase (5 of each sex for 45 days and 10 of each sex for 90 days), the animals entered a 5-7 day “washout” period, after which electroretinograms (ERGs) were measured for both eyes. The animals were then humanely euthanized, by CO2 asphyxiation in accordance with AVMA guidelines on euthanasia, for post-mortem pathology examinations. […]\nThe electroretinograms were measured with an Espion^2 ERG system with ColorDome Ganzfeld type illuminator by Diagnosys. […]"}, "hGAT-1": {"target": "T2, hGAT-1 (Homo sapiens, UniProt P30531)", "T2 construct": "expressed in transfected cells; host or cells: tsA201 cells, transient (PolyFect)", "T2 sequence (P30531 whole entry)": "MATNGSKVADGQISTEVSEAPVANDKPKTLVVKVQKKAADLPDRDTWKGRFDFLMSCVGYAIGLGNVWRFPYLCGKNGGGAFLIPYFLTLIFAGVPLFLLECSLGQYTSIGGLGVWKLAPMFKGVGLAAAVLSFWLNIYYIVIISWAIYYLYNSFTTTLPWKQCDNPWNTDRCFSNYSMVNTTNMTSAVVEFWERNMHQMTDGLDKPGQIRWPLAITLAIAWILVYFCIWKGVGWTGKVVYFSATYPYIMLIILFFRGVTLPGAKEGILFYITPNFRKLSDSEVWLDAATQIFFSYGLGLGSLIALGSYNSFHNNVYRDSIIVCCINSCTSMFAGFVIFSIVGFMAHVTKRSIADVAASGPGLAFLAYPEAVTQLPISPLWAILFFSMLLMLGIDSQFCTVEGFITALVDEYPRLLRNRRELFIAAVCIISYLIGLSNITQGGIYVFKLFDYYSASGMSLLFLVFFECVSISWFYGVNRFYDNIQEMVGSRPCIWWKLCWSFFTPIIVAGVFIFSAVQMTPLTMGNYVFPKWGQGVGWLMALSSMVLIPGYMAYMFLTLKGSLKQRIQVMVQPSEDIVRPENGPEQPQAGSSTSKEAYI", "experiment": "[3H]GABA uptake at human GABA transporters, tsA201 cells", "type": "cell-based", "procedure": "(§1) tsA201 cells were cultured in GlutaMAX-I DMEM supplemented with 10% fetal bovine serum, penicillin (100 U/ml), and streptomycin (100 μg/ml) at 37° C. in a humidified atmosphere of 95% air and 5% CO2. […] J. Biol. Chem. 2007, 282, 19331-19341. […] Quantification was performed by using Microscint™ 20 scintillation fluid (PerkinElmer) and a Packard TopCount microplate scintillation counter."}, "hGAT-2": {"target": "T3, hGAT-2 (Homo sapiens, UniProt Q9NSD5)", "T3 construct": "expressed in transfected cells; host or cells: tsA201 cells, transient (PolyFect)", "experiment": "[3H]GABA uptake at human GABA transporters, tsA201 cells", "type": "cell-based", "procedure": "as §1"}, "hBGT-1": {"target": "T4, hBGT-1 (Homo sapiens, UniProt P48065)", "T4 construct": "expressed in transfected cells; host or cells: tsA201 cells, transient (PolyFect)", "T4 sequence (P48065 whole entry)": "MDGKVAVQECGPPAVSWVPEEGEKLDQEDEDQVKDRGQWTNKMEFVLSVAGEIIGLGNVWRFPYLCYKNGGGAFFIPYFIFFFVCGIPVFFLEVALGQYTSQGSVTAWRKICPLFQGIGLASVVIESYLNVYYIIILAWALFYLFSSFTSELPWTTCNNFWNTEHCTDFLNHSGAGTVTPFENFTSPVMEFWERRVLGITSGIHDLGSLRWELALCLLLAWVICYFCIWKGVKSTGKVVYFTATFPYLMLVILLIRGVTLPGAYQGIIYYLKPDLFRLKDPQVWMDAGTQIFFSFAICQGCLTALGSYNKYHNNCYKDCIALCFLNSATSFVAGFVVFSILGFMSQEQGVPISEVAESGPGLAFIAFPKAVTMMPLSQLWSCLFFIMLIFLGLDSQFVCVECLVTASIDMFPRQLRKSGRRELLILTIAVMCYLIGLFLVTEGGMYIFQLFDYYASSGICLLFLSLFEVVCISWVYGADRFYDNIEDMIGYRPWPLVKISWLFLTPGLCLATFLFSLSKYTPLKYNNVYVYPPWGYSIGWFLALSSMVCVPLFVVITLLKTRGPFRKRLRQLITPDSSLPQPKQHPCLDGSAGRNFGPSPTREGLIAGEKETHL", "experiment": "[3H]GABA uptake at human GABA transporters, tsA201 cells", "type": "cell-based", "procedure": "as §1"}, "hGAT-3": {"target": "T5, hGAT-3 (Homo sapiens, UniProt P48066)", "T5 construct": "expressed in transfected cells; host or cells: tsA201 cells, transient (PolyFect)", "T5 sequence (P48066 whole entry)": "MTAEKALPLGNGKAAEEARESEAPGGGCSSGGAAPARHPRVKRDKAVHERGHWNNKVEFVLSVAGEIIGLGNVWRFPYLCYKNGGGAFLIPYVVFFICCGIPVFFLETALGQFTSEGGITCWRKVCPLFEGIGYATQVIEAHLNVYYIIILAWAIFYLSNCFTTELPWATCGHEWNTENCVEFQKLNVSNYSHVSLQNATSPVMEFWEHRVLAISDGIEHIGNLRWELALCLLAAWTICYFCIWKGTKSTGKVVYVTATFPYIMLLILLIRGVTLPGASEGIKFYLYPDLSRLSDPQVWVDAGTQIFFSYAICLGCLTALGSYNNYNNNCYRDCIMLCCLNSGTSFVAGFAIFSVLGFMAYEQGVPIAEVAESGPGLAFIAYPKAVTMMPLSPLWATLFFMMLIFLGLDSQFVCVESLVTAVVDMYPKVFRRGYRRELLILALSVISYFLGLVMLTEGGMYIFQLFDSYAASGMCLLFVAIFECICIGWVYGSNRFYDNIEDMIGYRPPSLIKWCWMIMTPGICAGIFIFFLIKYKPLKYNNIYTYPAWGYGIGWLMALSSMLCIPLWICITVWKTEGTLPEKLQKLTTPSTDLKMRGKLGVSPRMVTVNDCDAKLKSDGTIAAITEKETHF", "experiment": "[3H]GABA uptake at human GABA transporters, tsA201 cells", "type": "cell-based", "procedure": "as §1"}, "cortical astrocytes": {"system": "cortical astrocytes", "experiment": "[3H]GABA uptake in cultured cortical astrocytes", "type": "cell-based", "settings": "Mus musculus, Astrocyte", "procedure": "Cortical astrocytes were cultured essentially as previously described. Hertz L, Juurlink B H J, Hertz E, Fosmark H and Schousboe A. Preparation of Primary Cultures of Mouse (Rat) Astrocytes, in A Dissection and Tissue Culture Manual of the Nervous System (Shahar A, de Vellis J, Vernadakis A and Haber B eds) pp 105-108, Alan R. Liss, Inc., New York, 1989 The neopallium was removed from new born NMRI mice (Taconic, Denmark) and passed through an 80 μm nylon sieve and cultured in modified Dulbecco's modified Eagle's medium with fetal calf serum. The calf serum was lowered from 20% to 10% over three weeks, and finally the astrocytes were allowed to differentiate using 0.25 mM dibutyryl cyclic AMP during the last week of growth.\nCortical neurons were cultured essentially as previously described by removing the neopallium of 15-day old NMRI embryos by dissection followed by mild trypsination. Hertz E, Yu A C H, Hertz L, Juurlink B H J and Schousboe A. Preparation of Primary Cultures of Mouse Cortical Neurons, in A Dissection and Tissue Culture Manual of the Nervous System (Shahar A, de Vellis J, Vernadakis A and Haber B eds) pp 183-186, Alan R. Liss, Inc., New York, 198. […] Radioactivity was measured using Microscint™ 20 scintillation fluid (PerkinElmer) and a Packard TopCount microplate scintillation counter."}, "mGAT4": {"target": "T6, mGAT4 (Mus musculus, UniProt P31650)", "T6 construct": "expressed in transfected cells", "experiment": "[3H]GABA uptake at mouse GABA transporters, HEK-293 cells", "type": "cell-based", "procedure": "(§2) Cortical neurons were cultured essentially as previously described by removing the neopallium of 15-day old NMRI embryos by dissection followed by mild trypsination. Hertz E, Yu A C H, Hertz L, Juurlink B H J and Schousboe A. Preparation of Primary Cultures of Mouse Cortical Neurons, in A Dissection and Tissue Culture Manual of the Nervous System (Shahar A, de Vellis J, Vernadakis A and Haber B eds) pp 183-186, Alan R. Liss, Inc., New York, 198. The neurons were cultured in 10% fetal calf serum and, after 48 h, cytosine arabinoside was added to a final concentration of 20 μM to prevent glial proliferation. Four cultures of stably transfected Human Embryonic Kidney (HEK)-293 cells expressing mGAT1-4 were prepared by the method previously reported. […] J Pharmacol Exp Ther. 2002, 302, 636-644 The stable cell lines are under the selection pressure of blasticidin-S at 5 μg/mL. Determinations of the IC50 values were conducted as described earlier. […] Radioactivity was measured using Microscint™ 20 scintillation fluid (PerkinElmer) and a Packard TopCount microplate scintillation counter."}, "mGAT2": {"target": "T7, mGAT2 (Mus musculus, UniProt P31651)", "T7 construct": "expressed in transfected cells", "T7 sequence (P31651 whole entry)": "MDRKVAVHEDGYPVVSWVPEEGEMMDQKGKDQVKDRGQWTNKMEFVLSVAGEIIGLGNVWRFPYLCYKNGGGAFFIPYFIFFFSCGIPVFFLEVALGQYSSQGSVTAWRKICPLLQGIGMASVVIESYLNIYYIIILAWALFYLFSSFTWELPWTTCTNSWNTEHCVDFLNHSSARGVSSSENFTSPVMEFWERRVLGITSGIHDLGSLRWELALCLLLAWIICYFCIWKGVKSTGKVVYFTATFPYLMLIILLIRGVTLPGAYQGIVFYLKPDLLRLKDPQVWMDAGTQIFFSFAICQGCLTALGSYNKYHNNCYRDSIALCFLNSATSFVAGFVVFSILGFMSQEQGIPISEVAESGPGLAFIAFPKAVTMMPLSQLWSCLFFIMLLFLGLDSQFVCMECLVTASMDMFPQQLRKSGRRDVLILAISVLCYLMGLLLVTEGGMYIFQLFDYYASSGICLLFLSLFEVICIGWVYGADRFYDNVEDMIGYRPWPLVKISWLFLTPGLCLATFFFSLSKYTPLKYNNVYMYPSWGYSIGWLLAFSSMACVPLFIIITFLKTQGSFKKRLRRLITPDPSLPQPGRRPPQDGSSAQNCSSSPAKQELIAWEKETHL", "experiment": "[3H]GABA uptake at mouse GABA transporters, HEK-293 cells", "type": "cell-based", "procedure": "as §2"}, "mGAT3": {"target": "T8, mGAT3 (Mus musculus, UniProt P31649)", "T8 construct": "expressed in transfected cells", "experiment": "[3H]GABA uptake at mouse GABA transporters, HEK-293 cells", "type": "cell-based", "procedure": "as §2"}, "mGAT1": {"target": "T9, mGAT1 (Mus musculus, UniProt P31648)", "T9 construct": "expressed in transfected cells", "experiment": "[3H]GABA uptake at mouse GABA transporters, HEK-293 cells", "type": "cell-based", "procedure": "as §2"}, "Sprague Dawley rats": {"system": "Sprague Dawley rats", "experiment": "cocaine induced dopamine surge in nucleus accumbens (FIG. 3)", "settings": "1 mg/kg single dose"}, "GABAB receptor [2]": {"target": "T1, GABAB receptor", "experiment": "biochemical"}},
  "note": "pIC50: −log10 of the molar value.",
  "data": [
    {"compound": "N[C@H]1C[C@@H](C(=O)O)CC1=C(F)F", "note": "[CPP-115]", "values": [
      {"measurement": "effective dose, times lower than the 300 mg/kg dose of vigabatrin", "setting": "Sprague-Dawley rats; 0.5 mg/kg versus 300 mg/kg", "value": 600, "unit": "times"},
      {"measurement": "effect on cocaine-induced increases in synaptic dopamine", "setting": "Sprague-Dawley rats; 0.5 mg/kg, 2.5 h before cocaine 5.0 mg/kg i.v.", "value": "complete blockade of cocaine-induced increases in synaptic dopamine"},
      {"measurement": "dose blocking cocaine-induced dopamine increase and CPP, times lower than vigabatrin", "setting": "Sprague-Dawley rats; μPET and CPP, summary statement", "value": 100, "unit": "times"},
      {"measurement": "inhibition of radioligand binding at GABAA receptors", "setting": "GABAA receptor; 100 μM, rat brain cortical homogenate", "value": "no inhibition of binding was observed"},
      {"measurement": "pIC50", "setting": "GABAA receptor; read-out: [3H]muscimol competition (GABAA receptor) IC50, 5 nM [3H]muscimol, 0 °C, 60 min", "value": "< 4.00"},
      {"measurement": "inhibition of radioligand binding at GABAB receptors", "setting": "GABAB receptor [1]", "value": "no inhibition of binding was observed"},
      {"measurement": "visual field defects compared with vigabatrin", "setting": "Wistar Albino rats", "value": "less visual field defects than vigabatrin"},
      {"measurement": "pIC50", "setting": "hGAT-1", "value": "< 3.00"},
      {"measurement": "pIC50", "setting": "hGAT-2", "value": "< 3.00"},
      {"measurement": "pIC50", "setting": "hBGT-1", "value": "< 3.00"},
      {"measurement": "pIC50", "setting": "hGAT-3", "value": "< 3.00"},
      {"measurement": "pIC50", "setting": "cortical astrocytes", "value": "< 3.00"},
      {"measurement": "pIC50", "setting": "mGAT4", "value": "< 3.00"},
      {"measurement": "pIC50", "setting": "mGAT2", "value": "< 3.00"},
      {"measurement": "pIC50", "setting": "mGAT3", "value": "< 3.00"},
      {"measurement": "pIC50", "setting": "mGAT1", "value": "< 3.00"},
      {"measurement": "dopamine levels after cocaine challenge", "setting": "Sprague Dawley rats", "value": "less than 300 times baseline"},
      {"measurement": "pIC50", "setting": "GABAB receptor [2]", "value": "< 4.00"}
    ]}
  ]
}
